The source of these data is US4450269A, “Mono-5-substituted-3-chloro-4H-1,2,6-thiadiazin-4-one antifungal agents” (FMC Corporation, priority 1980, dated 1984).

The subject of one assay is Alternaria solani. Kind of assay: Mycelial growth test. It counts as cell-based. As to conditions: AS; for Percent Fungus Growth Inhibition: 72 hours; for inhibition at 5 ppm / inhibition at 10 ppm / inhibition at 20 ppm / inhibition at 40 ppm: Alternaria solani, 72 h, read-out: Percent Fungus Growth Inhibition.
The next assay relates to Venturia inaequalis. Kind of assay: Spore germination test. It counts as cell-based. As to conditions: VI, 48 hours. As to the method: VI = Venturia inaequalis
The test chemical was dissolved or suspended in acetone in an amount such that 0.8 ml of the resulting suspension or solution, mixed with 40 ml water agar produced a water agar solution containing 40, 10, 2.5 and 1 ppm of test chemical. The resulting agar solution, at 50° C., was then divided equally between two sterile petri dishes, each having four separated quadrants, and allowed to solidify. […] quadrants of each dish were flooded with 0.1 ml of a spore suspension in sterile water. Spores of two pathogens, Erysiphe polygoni and Uromyes phaseoli, from infected plant leaves, were brushed on the remaining two quadrants. The tests were then incubated 48 hours, at 24° C.
Readings were then taken and the percentage of germinated spores calculated. From this percentage, a spore germination rating was assigned as follows: […]

For orientation: inhibition means the drop in the measured response relative to a control, in per cent.

On to “3-chloro-5-[methylaminocarbonyloxy)phenoxyl]-4H-1,2,6-thiadiazin-4-one [Compound 36]”, for which the “Percent Fungus Growth Inhibition” value in the assay with Alternaria solani (5 ppm) is listed as 71%; in the assay with Alternaria solani (10 ppm) it was 90%; with Alternaria solani (20 ppm), 100%; with Alternaria solani (40 ppm), 100%.

Regarding `O=c1c(Cl)nsnc1Oc1ccccc1` [Compound 2, 3-chloro-5-phenoxy-4H--1,2,6-thiadiazin-4-one], in the assay on Alternaria solani (5 ppm), the inhibition at 5 ppm amounted to 75%. In the assay on Alternaria solani (10 ppm), the inhibition at 10 ppm is 100%. Moreover, the inhibition at 20 ppm in the assay on Alternaria solani (20 ppm) is 100%. Further, in the assay with Alternaria solani (40 ppm), the inhibition at 40 ppm is 100%. Moreover, the “Spore Germination Rating” value with Venturia inaequalis (1.0 ppm) is 4 (80-100); in the assay on Venturia inaequalis (2.5 ppm), 2 (40-60); in the assay on Venturia inaequalis (10 ppm) it was 0 (0-10); with Venturia inaequalis (40 ppm), 0 (0-10).

As to `Cc1ccc(Oc2nsnc(Cl)c2=O)cc1` [Compound 3, 3-chloro-5-(4-methylphenoxy)-4H--1,2,6-thiadiazin-4-one], the inhibition at 5 ppm in the assay with Alternaria solani (5 ppm) came to 19%. In addition, the inhibition at 10 ppm with Alternaria solani (10 ppm) turned out to be 63%. For the same compound, the inhibition at 20 ppm in the assay on Alternaria solani (20 ppm) stood at 100%. In the assay on Alternaria solani (40 ppm), the inhibition at 40 ppm came to 100%. In addition, the “Spore Germination Rating” value is 4 (80-100) in the assay with Venturia inaequalis (1.0 ppm), 4 (80-100) in the assay on Venturia inaequalis (2.5 ppm), 0 (0-10) with Venturia inaequalis (10 ppm) and 0 (0-10) in the assay on Venturia inaequalis (40 ppm).

As for `CC(C)(C)c1ccc(Oc2nsnc(Cl)c2=O)cc1` [Compound 4, 3-chloro-5-(4-tert-butylphnoxy)-4H--1,2,6-thiadiazin-4-one], the inhibition at 5 ppm with Alternaria solani (5 ppm) worked out at 13%. For the same compound, in the assay on Alternaria solani (10 ppm), the inhibition at 10 ppm came to 13%. The inhibition at 20 ppm in the assay with Alternaria solani (20 ppm) worked out at 0%. For the same compound, the inhibition at 40 ppm with Alternaria solani (40 ppm) was found to be 17%. The “Spore Germination Rating” value in the assay with Venturia inaequalis (1.0 ppm) is on record as 4 (80-100); in the assay with Venturia inaequalis (2.5 ppm), 4 (80-100); in the assay on Venturia inaequalis (10 ppm) it was 0 (0-10); with Venturia inaequalis (40 ppm), 0 (0-10).

Consider `COc1ccc(Oc2nsnc(Cl)c2=O)cc1` [Compound 5, 3-chloro-5-(4-methoxyphenoxy)4H--1,2,6-thiadiazin-4-one], for which, in the assay on Alternaria solani (5 ppm), the inhibition at 5 ppm amounted to 100%. The inhibition at 10 ppm in the assay with Alternaria solani (10 ppm) came out at 100%. Besides, the inhibition at 20 ppm with Alternaria solani (20 ppm) was found to be 100%. In addition, the inhibition at 40 ppm in the assay on Alternaria solani (40 ppm) is 100%. The “Spore Germination Rating” value in the assay with Venturia inaequalis (1.0 ppm) is 3 (60-80); in the assay with Venturia inaequalis (2.5 ppm), 0 (0-10); with Venturia inaequalis (10 ppm), 0 (0-10); in the assay on Venturia inaequalis (40 ppm), 0 (0-10).

With `CCCCOc1ccc(Oc2nsnc(Cl)c2=O)cc1` [Compound 6, 3-chloro-5-(4-n-butoxyphenoxy)-4H--1,2,6-thiadiazin-4-one], in the assay with Alternaria solani (5 ppm), the inhibition at 5 ppm was 8%. Besides, the inhibition at 10 ppm with Alternaria solani (10 ppm) was found to be 0%. Moreover, in the assay on Alternaria solani (20 ppm), the inhibition at 20 ppm was 13%. Moreover, the inhibition at 40 ppm with Alternaria solani (40 ppm) was found to be 21%. Moreover, the “Spore Germination Rating” value in the assay on Venturia inaequalis (1.0 ppm) is 1 (10-40); in the assay with Venturia inaequalis (2.5 ppm) it was 0 (0-10); with Venturia inaequalis (10 ppm), 0 (0-10); in the assay on Venturia inaequalis (40 ppm) it was 0 (0-10).

As to `CCOC(=O)c1ccc(Oc2nsnc(Cl)c2=O)cc1` [Compound 7, 3-chloro-5-(4-ethoxycarbonylphenoxy)-4H--1,2,6-thiadiazin-4-one], the inhibition at 5 ppm with Alternaria solani (5 ppm) was 54%. Moreover, the inhibition at 10 ppm in the assay on Alternaria solani (10 ppm) turned out to be 75%. Besides, the inhibition at 20 ppm with Alternaria solani (20 ppm) came to 75%. Besides, in the assay with Alternaria solani (40 ppm), the inhibition at 40 ppm came out at 92%. Further, the “Spore Germination Rating” value with Venturia inaequalis (1.0 ppm), with Venturia inaequalis (2.5 ppm), in the assay with Venturia inaequalis (10 ppm) and in the assay on Venturia inaequalis (40 ppm) was 0 (0-10) throughout.

As for `CC(=O)Nc1ccc(Oc2nsnc(Cl)c2=O)cc1` [Compound 8, 5-(4-acetylaminophenoxy)-3-chloro-4H--1,2,6-thiadiazin-4-one], in the assay with Alternaria solani (5 ppm), the inhibition at 5 ppm is 38%. In addition, the inhibition at 10 ppm in the assay on Alternaria solani (10 ppm) was 41%. Further, in the assay with Alternaria solani (20 ppm), the inhibition at 20 ppm is 69%. In the assay on Alternaria solani (40 ppm), the inhibition at 40 ppm is 86%. Further, the “Spore Germination Rating” value in the assay with Venturia inaequalis (1.0 ppm) is 4 (80-100); in the assay with Venturia inaequalis (2.5 ppm) it was 3 (60-80); with Venturia inaequalis (10 ppm) it was 2 (40-60); in the assay on Venturia inaequalis (40 ppm), 0 (0-10).

With `O=c1c(Cl)nsnc1Oc1ccc([N+](=O)[O-])cc1` [Compound 9, 3-chloro-5-(4-nitrophenoxy)-4H--1,2,6-thiadiazin-4-one], the inhibition at 5 ppm with Alternaria solani (5 ppm) came out at 31%. Moreover, the inhibition at 10 ppm in the assay with Alternaria solani (10 ppm) was 63%. Further, the inhibition at 20 ppm in the assay on Alternaria solani (20 ppm) was found to be 100%. The inhibition at 40 ppm in the assay with Alternaria solani (40 ppm) is 100%. The “Spore Germination Rating” value in the assay on Venturia inaequalis (1.0 ppm), with Venturia inaequalis (2.5 ppm), in the assay on Venturia inaequalis (10 ppm) and with Venturia inaequalis (40 ppm) was 0 (0-10) throughout.

For `O=c1c(Cl)nsnc1Oc1ccc(O)cc1` [Compound 35, 3-chloro-5-(4-hydroxyphenoxy)-4H-1,2,6-thiadiazin-4-one], the inhibition at 5 ppm with Alternaria solani (5 ppm) was 90%. Further, the inhibition at 10 ppm in the assay on Alternaria solani (10 ppm) is 100%. Besides, the inhibition at 20 ppm with Alternaria solani (20 ppm) came to 100%. Besides, in the assay on Alternaria solani (40 ppm), the inhibition at 40 ppm was determined as 100%.

Regarding `O=C(Nc1ccccc1)Oc1ccc(Oc2nsnc(Cl)c2=O)cc1` [Compound 37, 3-chloro-5-[4-(phenylaminocarbonyloxy)phenoxy]-4H-1,2,6,-thiadiazin-4-one], the inhibition at 5 ppm in the assay with Alternaria solani (5 ppm) turned out to be 46%. Besides, the inhibition at 10 ppm in the assay with Alternaria solani (10 ppm) was 50%. Besides, the inhibition at 20 ppm in the assay on Alternaria solani (20 ppm) is 50%. In the assay on Alternaria solani (40 ppm), the inhibition at 40 ppm stood at 54%.

For the compound `O=C(OCc1ccccc1)Oc1ccc(Oc2nsnc(Cl)c2=O)cc1` [Compound 38, 3-chloro-5-[4-(phenylmethoxycarbonyloxy)phenoxyl]-4H-1,2,6-thiadiazin-4-one], in the assay with Alternaria solani (5 ppm), the inhibition at 5 ppm was determined as 5%. In addition, in the assay on Alternaria solani (10 ppm), the inhibition at 10 ppm is 48%. The inhibition at 20 ppm in the assay on Alternaria solani (20 ppm) was 33%. Besides, the inhibition at 40 ppm with Alternaria solani (40 ppm) came out at 90%.

For the compound `CSc1ccc(Oc2nsnc(Cl)c2=O)cc1` [Compound 39, 3-chloro-5-[(4-methylthio)phenoxy]-4H-1,2,6,-thiadiazin-4-one], the inhibition at 5 ppm in the assay with Alternaria solani (5 ppm) stood at 42%. For the same compound, in the assay on Alternaria solani (10 ppm), the inhibition at 10 ppm is 33%. For the same compound, the inhibition at 20 ppm with Alternaria solani (20 ppm) worked out at 42%. In addition, the inhibition at 40 ppm in the assay on Alternaria solani (40 ppm) turned out to be 54%.

For `C[S+]([O-])c1ccc(Oc2nsnc(Cl)c2=O)cc1` (stereo not drawn) [Compound 40, 3-chloro-5-[(4-methylsulfinyl)phenoxy]-4H-1,2,6,-thiadiazin-4-one], the inhibition at 5 ppm with Alternaria solani (5 ppm) stood at 54%. Moreover, the inhibition at 10 ppm in the assay on Alternaria solani (10 ppm) was 75%. In addition, in the assay with Alternaria solani (20 ppm), the inhibition at 20 ppm amounted to 92%. Further, the inhibition at 40 ppm in the assay with Alternaria solani (40 ppm) is 100%.

Turning to `N#CCc1ccc(Oc2nsnc(Cl)c2=O)cc1` [Compound 46, 3-chloro-5-[(4-cyanomethyl)-phenoxy]4H--1,2,6-thiadiazin-4-one], the inhibition at 5 ppm in the assay on Alternaria solani (5 ppm) was 71%. For the same compound, the inhibition at 10 ppm in the assay with Alternaria solani (10 ppm) is 81%. The inhibition at 20 ppm in the assay with Alternaria solani (20 ppm) worked out at 100%. Further, in the assay with Alternaria solani (40 ppm), the inhibition at 40 ppm was 100%.

Regarding `COc1ccc(Cl)c(Oc2nsnc(Cl)c2=O)c1` [Compound 51, 3-chloro-5-[(2-chloro-5-methoxy)phenoxy]-4H--1,2,6-thiadiazin-4-one], in the assay on Alternaria solani (5 ppm), the inhibition at 5 ppm was determined as 52%. Moreover, the inhibition at 10 ppm in the assay with Alternaria solani (10 ppm) amounted to 75%. Moreover, the inhibition at 20 ppm in the assay on Alternaria solani (20 ppm) turned out to be 81%. Besides, the inhibition at 40 ppm in the assay on Alternaria solani (40 ppm) came out at 90%.

Consider `O=c1c(Cl)nsnc1Oc1ccc([N+](=O)[O-])cc1Cl` [Compound 53, 3-chloro-5-(2-chloro-4-nitrophenoxy)-4H--1,2,6-thiadiazin-4-one], for which the inhibition at 5 ppm with Alternaria solani (5 ppm) stood at 38%. For the same compound, the inhibition at 10 ppm in the assay with Alternaria solani (10 ppm) was determined as 42%. Moreover, the inhibition at 20 ppm in the assay on Alternaria solani (20 ppm) worked out at 67%. Moreover, the inhibition at 40 ppm in the assay with Alternaria solani (40 ppm) came to 100%.

On to `Cc1ccc(Cl)c(Oc2nsnc(Cl)c2=O)c1` [Compound 56, 3-chloro-5-[(2-chloro-5-methyl)phenoxy]-4H--1,2,6-thiadiazin-4-one], for which, in the assay with Alternaria solani (5 ppm), the inhibition at 5 ppm is 52%. Further, the inhibition at 10 ppm in the assay with Alternaria solani (10 ppm) turned out to be 71%. In addition, the inhibition at 20 ppm in the assay with Alternaria solani (20 ppm) amounted to 81%. Besides, the inhibition at 40 ppm in the assay on Alternaria solani (40 ppm) was found to be 100%.

Regarding `COc1cc(Oc2nsnc(Cl)c2=O)cc(OC)c1C(C)=O` [Compound 61, 3-[(4-acetyl-3,5-dimethoxy)-phenoxy]-5-chloro-4H--1,2,6-thiadiazin-4-one], in the assay on Alternaria solani (5 ppm), the inhibition at 5 ppm was found to be 33%. In addition, in the assay with Alternaria solani (10 ppm), the inhibition at 10 ppm is 29%. The inhibition at 20 ppm with Alternaria solani (20 ppm) was determined as 25%. Moreover, the inhibition at 40 ppm in the assay on Alternaria solani (40 ppm) was determined as 42%.
